Columns and labels:
RBP4 [1] = molecular target: T1, RBP4 (Homo sapiens, UniProt P02753); assay: SPA assay measuring displacement of 3H-retinol from purified human RBP4; assay type: binding; details: for IC50: binding to human RBP4, 3H-retinol at 10 nM as radioligand; for ability to function as RBP4 ligands (competition binding): displacement of radioactive retinol from purified human RBP4
Protocol: 3H-retinol at 10 nM was used as a radioligand. […] Contacting residues are labeled and illustrated in stick format (MOE, Chemical Computing Group, Inc., Montreal, CA).
The affinity of palmitic acid, oleic acid, linoleic acid, and docosahexaenoic acid for RBP4 was tested using a SPA assay that measures displacement of radioactive retinol from purified human RBP4 (FIG. 21A).

RBP4-TTR interaction = RBP4-TTR interaction (Homo sapiens, UniProt P02753); details: Berni 1992, Schaffer 1993; cited from earlier work
ob/ob mice = ob/ob mice fed a high-fat diet, Koh 2012; cited from earlier work
RBP4 [2] = molecular target: T1, RBP4; details: Berni 1992; cited from earlier work
RBP4 [3] = molecular target: RBP4 (Rattus norvegicus, UniProt P04916); details: Adams 1995; cited from earlier work

IC50 (RBP4 [1]) | ability to function as RBP4 ligands (competition binding) (RBP4 [1]) | SMILES | RBP4-TTR interaction (RBP4-TTR interaction) | weight gain, insulin resistance and fatty liver (ob/ob mice) | binding to RBP4 (RBP4 [2]) | serum RBP4 and retinol (RBP4 [3])
49.9 µM |  | CC/C=C\C/C=C\C/C=C\C/C=C\C/C=C\C/C=C\CCC(=O)O [Docosahexanoic acid (DHA), docosahexaenoic acid] |  |  |  | 
17.3 µM | weak RBP4 ligands | CCCCC/C=C\C/C=C\CCCCCCCC(=O)O [linoleic acid] |  |  |  | 
22.6 µM | weak RBP4 ligands | CCCCCCCCCCCCCCCC(=O)O [palmitic acid] |  |  |  | 

Second part, the compound before the results:

SMILES | IC50 (RBP4 [1]) | ability to function as RBP4 ligands (competition binding) (RBP4 [1]) | RBP4-TTR interaction (RBP4-TTR interaction) | weight gain, insulin resistance and fatty liver (ob/ob mice) | binding to RBP4 (RBP4 [2]) | serum RBP4 and retinol (RBP4 [3])
CC1=C(/C=C/C(C)=C/C=C/C(C)=C/C(=O)Nc2ccc(O)cc2)C(C)(C)CCC1 [fenretinide, N-(4-hydroxy-phenyl)retinamide] |  |  | disrupt the RBP4-TTR interaction | decreases | bind to RBP4 | reduce serum RBP4 and retinol
CCCCCCCC/C=C\CCCCCCCC(=O)O [oleic acid] | 33 µM | weak RBP4 ligands |  |  |  | 
